A word on the IC50: it is the concentration needed to halve the response being measured.

Each structure is given as a SMILES string. Numbering of substitutions follows the chain as printed.

The first assay addresses T1, hAR (Homo sapiens, UniProt P10275).
T1 sequence (P10275 1-920): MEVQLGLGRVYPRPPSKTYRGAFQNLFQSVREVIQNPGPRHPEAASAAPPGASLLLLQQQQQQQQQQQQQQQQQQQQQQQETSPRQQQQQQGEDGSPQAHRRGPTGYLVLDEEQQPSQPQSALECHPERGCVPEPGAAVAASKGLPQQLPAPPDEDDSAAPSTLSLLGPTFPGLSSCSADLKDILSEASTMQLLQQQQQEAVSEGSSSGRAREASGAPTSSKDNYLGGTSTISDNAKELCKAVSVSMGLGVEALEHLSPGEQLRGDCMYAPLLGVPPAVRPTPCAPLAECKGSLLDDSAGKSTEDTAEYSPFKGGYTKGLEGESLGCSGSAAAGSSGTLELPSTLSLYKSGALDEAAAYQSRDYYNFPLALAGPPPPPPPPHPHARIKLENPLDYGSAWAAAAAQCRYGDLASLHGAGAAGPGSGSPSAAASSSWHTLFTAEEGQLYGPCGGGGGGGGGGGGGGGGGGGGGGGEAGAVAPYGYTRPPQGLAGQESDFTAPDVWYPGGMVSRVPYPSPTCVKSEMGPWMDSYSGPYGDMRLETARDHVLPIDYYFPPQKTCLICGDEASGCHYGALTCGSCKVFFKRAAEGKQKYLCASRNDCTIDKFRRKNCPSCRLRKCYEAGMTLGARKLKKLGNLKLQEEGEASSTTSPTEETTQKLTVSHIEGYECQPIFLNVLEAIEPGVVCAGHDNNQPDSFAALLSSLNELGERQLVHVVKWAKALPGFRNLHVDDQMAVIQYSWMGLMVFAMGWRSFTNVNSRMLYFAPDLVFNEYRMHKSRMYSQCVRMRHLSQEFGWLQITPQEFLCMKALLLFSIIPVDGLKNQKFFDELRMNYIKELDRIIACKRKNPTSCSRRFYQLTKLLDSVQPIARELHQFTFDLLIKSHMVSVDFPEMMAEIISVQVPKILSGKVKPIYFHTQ
Put plainly: Competitive binding of 3H-DHT to baculovirus/Sf9 generated hAR extracts. Conditions: IC50, concentration at which one half of maximum binding of 1 nM 3H-DHT to hAR is inhibited; one hour at 4° C.; mean of multiple tests. The protocol: The description below describes how the assay was carried out.
Competitive binding analysis was performed on baculovirus/Sf9 generated hAR extracts in the presence or absence of different concentrations of test agent and a fixed concentration of ^3H-dihydrotestosterone (^3H-DHT) as tracer. This binding assay method is a modification of a protocol previously described (Liao S., et. al. J. Steroid Biochem. 20:11-17 1984). Briefly, progressively decreasing concentrations of compounds are incubated in the presence of hAR extract (Chang et al. P.N.A.S. Vol. 89, pp. […], 1992), hydroxylapatite, and 1 nM^3H-DHT for one hour at 4° C. Subsequently, the binding reactions are washed three times to completely remove excess unbound ^3H-DHT. hAR bound ^3H-DHT levels are determined in the presence of compounds (i.e. competitive binding) and compared to levels bound when no competitor is present (i.e. maximum binding). Compound binding affinity to the hAR is expressed as the concentration of compound at which one half of the maximum binding is inhibited.
For `COC(=O)c1cccc(CN2CC(C)(C)C(Oc3ccc(C#N)c(C(F)(F)F)c3)C2=O)c1` (racemic) [Example 25, (±)-3-[3-(4-Cyano-3-trifluoromethyl-phenoxy)-4,4-dimethyl-2-oxo-pyrrolidin-1-ylmethyl]-benzoic acid methyl ester], the IC50 was 48 nM.

Consider `CC(c1nnc(-c2ccccc2)o1)N1CC(C)(C)C(Oc2ccc(C#N)c(C(F)(F)F)c2)C1=O` (centres unmarked) [Example 128, 4-[4,4-Dimethyl-2-oxo-1-[1-(5-phenyl-[1,3,4]oxadiazol-2-yl)-ethyl]-pyrrolidin-3-yloxy]-2-trifluoromethyl-benzonitrile], for which the IC50 stood at 82 nM.

On to `Cc1ccc(-c2nnc(C(C)N3CC(C)(C)C(Oc4ccc(C#N)c(C(F)(F)F)c4)C3=O)o2)cc1` (centres unmarked) [Example 129, 4-[4,4-Dimethyl-2-oxo-1-[1-(5-p-tolyl-[1,3,4]oxadiazol-2-yl)-ethyl]-pyrrolidin-3-yloxy]-2-trifluoromethyl-benzonitrile], for which the IC50 turned out to be 63 nM.

With `CC(c1nnc(-c2ccc(O)cc2O)o1)N1CC(C)(C)C(Oc2ccc(C#N)c(C(F)(F)F)c2)C1=O` (centres unmarked) [Example 132, 4-(1-{1-[5-(2,4-dihydroxy-phenyl)-[1,3,4]oxadiazol-2-yl]-ethyl}-4,4-dimethyl-2-oxo-pyrrolidin-3-yloxy)-2-trifluoromethyl-benzonitrile], the 50% inhibitory concentration (IC50) worked out at 52 nM.

As to `COc1ccccc1-c1nnc(C(C)N2CC(C)(C)C(Oc3ccc(C#N)c(C(F)(F)F)c3)C2=O)o1` (centres unmarked) [Example 133, 4-(1-{1-[5-(2-methoxy-phenyl)-[1,3,4]oxadiazol-2-yl]-ethyl}-4,4-dimethyl-2-oxo-pyrrolidin-3-yloxy)-2-trifluoromethyl-benzonitrile], the IC50 was 60 nM.

Take `COc1cccc(-c2nnc(C(C)N3CC(C)(C)C(Oc4ccc(C#N)c(C(F)(F)F)c4)C3=O)o2)c1` (centres unmarked) [Example 134, 4-(1-{1-[5-(3-methoxy-phenyl)-[1,3,4]oxadiazol-2-yl]-ethyl}-4,4-dimethyl-2-oxo-pyrrolidin-3-yloxy)-2-trifluoromethyl-benzonitrile]: the IC50 turned out to be 76 nM.

Take `COc1ccc(-c2nnc(C(C)N3CC(C)(C)C(Oc4ccc(C#N)c(C(F)(F)F)c4)C3=O)o2)cc1` (centres unmarked) [Example 135, 4-(1-{1-[5-(4-methoxy-phenyl)-[1,3,4]oxadiazol-2-yl]-ethyl}-4,4-dimethyl-2-oxo-pyrrolidin-3-yloxy)-2-trifluoromethyl-benzonitrile]: the IC50 came out at 44 nM.

The assay is the same for the next values; noted with them: concentration at which one half of maximum binding of 1 nM 3H-DHT to hAR is inhibited; one hour at 4° C.; mean of multiple tests; read-out: IC50.
`C[C@@H](c1ccccc1)N1CC(C)(C)C(Oc2ccc(C#N)c(C(F)(F)F)c2)C1=O` (mixture of isomers) [Example 69, (+)-4-[4,4-Dimethyl-2-oxo-1-(1-phenyl-ethyl)-pyrrolidin-3-yloxy]-2-trifluoromethyl-benzonitrile]: the IC50 was 258 nM.

On to `Cc1noc(C)c1C(=O)N1CC(C)(C)C(Oc2ccc(C#N)c(C(F)(F)F)c2)C1=O` (centres unmarked) [Example 106, 4-[1-(3,5-Dimethyl-isoxazole-4-carbonyl)-4,4-dimethyl-2-oxo-pyrrolidin-3-yloxy]-2-trifluoromethyl-benzonitrile], for which the IC50 was found to be 342 nM.

For the molecule `CC1(C)CN(C(=O)c2cccs2)C(=O)C1Oc1ccc(C#N)c(C(F)(F)F)c1` (centres unmarked) [Example 108, 4-[4,4-Dimethyl-2-oxo-1-(thiophene-2-carbonyl)-pyrrolidin-3-yloxy]-2-trifluoromethyl-benzonitrile], the IC50 was found to be 370 nM.

Turning to `Cc1ccccc1-c1nnc(CN2CC(C)(C)C(Oc3ccc(C#N)c(C(F)(F)F)c3)C2=O)o1` (centres unmarked) [Example 111, 4-[4,4-Dimethyl-2-oxo-1-(5-o-tolyl-[1,3,4]oxadiazol-2-ylmethyl)-pyrrolidin-3-yloxy]-2-trifluoromethyl-benzonitrile], the IC50 is 239 nM.

`CC1(C)CN(Cc2nnc(-c3cccc(Cl)c3)o2)C(=O)C1Oc1ccc(C#N)c(C(F)(F)F)c1` (centres unmarked) [Example 120, 4-{1-[5-(3-Chloro-phenyl)-[1,3,4]oxadiazol-2-ylmethyl]-4,4-dimethyl-2-oxo-pyrrolidin-3-yloxy}-2-trifluoromethyl-benzonitrile]: the IC50 worked out at 347 nM.

On to `Cc1cccc(-c2nnc(CN3CC(C)(C)C(Oc4ccc(C#N)c(C(F)(F)F)c4)C3=O)o2)c1` (centres unmarked) [Example 122, 4-[4,4-Dimethyl-2-oxo-1-(5-m-tolyl-[1,3,4]oxadiazol-2-ylmethyl)-pyrrolidin-3-yloxy]-2-trifluoromethyl-benzonitrile], for which the IC50 was 271 nM.

As for `CCOc1cccc(-c2nnc(CN3CC(C)(C)C(Oc4ccc(C#N)c(C(F)(F)F)c4)C3=O)o2)c1` (centres unmarked) [Example 124, 4-{1-[5-(3-Ethoxy-phenyl)-[1,3,4]oxadiazol-2-ylmethyl]-4,4-dimethyl-2-oxo-pyrrolidin-3-yloxy}-2-trifluoromethyl-benzonitrile], the IC50 is 404 nM.

As for `CC1(C)CN(Cc2nnc(-c3ccc(Cl)cc3)o2)C(=O)C1Oc1ccc(C#N)c(C(F)(F)F)c1` (centres unmarked) [Example 125, 4-{1-[5-(4-Chloro-phenyl)-[1,3,4]oxadiazol-2-ylmethyl]-4,4-dimethyl-2-oxo-pyrrolidin-3-yloxy}-2-trifluoromethyl-benzonitrile], the half-inhibitory concentration (IC50) stood at 250 nM.

The target of a further assay is T2, androgen receptor (Homo sapiens, UniProt P10275).
T2 sequence (P10275 1-920 Q868H): T1 sequence (P10275 1-920) with Q868H
Put plainly: AR Antagonist Cell Assay (MDA-MB453-MMTV clone 54-19, luciferase reporter). Conditions: inhibition of induction by DHT (final concentration at 100 μM), 17 hr; compound 0.32-1000 nM; mean of multiple tests; read-out: IC50. Type of assay: cell-based. Here is the method:
The compounds ability to antagonize the effects of androgen on the androgen receptor were determined in a whole cell assay as described immediately below.
Experimental Procedure for AR Antagonist Cell Assay
This cell line is a stable transfected cell line with MDA-MB453 cell background (a human breast tumor cell line expressing androgen receptor). A MMTV minimal promoter containing ARE was first cloned in front of a firefly luciferase reporter gene. Then the cascade was cloned into transfection vector pUV120puro. […] Puromycin resistant stable cell line was selected.
Cell Culture Media and Reagents:
Plating medium: DMEM (phenol red free), 10% charcoal treated HyClone serum, 1% L-glutamine
Assay medium: DMEM (phenol red free), 1% charcoal treated HyClone serum, 1% L-glutamine, 1% penicillin/streptomycin
Cells are maintained in culture medium, splitting cells when they reach 80-90% confluence
To test compounds, 10,000 cells/well are plated to opaque 96 cell culture plate in 100 ul/well plating medium, culture for overnight at 37° C. in cell culture incubator
Add 10 ul/well freshly prepared DHT (final concentration at […]) to each well, incubate at 37° C. for 17 hr (overnight)
Add 50 ul/well 3× luciferase buffer, incubate at room temperature for 5 minutes, then count on Luminometer
The results are reported as the mean of multiple tests described below (the numbers of tests are indicated in the footnote). N.D. denotes that the compound was not tested.
A general note: In a reporter assay the amount or activity of a reporter protein is the signal.
As to `C[C@@H](c1ccccc1)N1CC(C)(C)C(Oc2ccc(C#N)c(C(F)(F)F)c2)C1=O` (mixture of isomers) [Example 69, (+)-4-[4,4-Dimethyl-2-oxo-1-(1-phenyl-ethyl)-pyrrolidin-3-yloxy]-2-trifluoromethyl-benzonitrile], the IC50 was 331 nM.

Take `COC(=O)c1cccc(CN2CC(C)(C)C(Oc3ccc(C#N)c(C(F)(F)F)c3)C2=O)c1` (racemic) [Example 25, (±)-3-[3-(4-Cyano-3-trifluoromethyl-phenoxy)-4,4-dimethyl-2-oxo-pyrrolidin-1-ylmethyl]-benzoic acid methyl ester]: the IC50 amounted to 107 nM.

The record behind these values is patent US7674819B2 (Warner-Lambert Company LLC, priority 2005, dated 2010).
